Test results published in US10668081B2, “Prostamide-containing intraocular implant” (Allergan, Inc., priority 2013, dated 2020).

Experiments:
[1] = tested on: intraocular pressure in dogs; test: IOP reduction after intracameral administration by infusion pump in dogs; format: in vivo, dog; settings: for Intracameral Administration (dogs) Max IOP reduction: infusion pump into anterior chamber, 2-3 weeks, vs baseline
Excerpt: (§1) A series of prostamides were selected as potential candidates for an intracameral biodegradable drug delivery system (e.g., an implant) and tested for their ability to lower IOP by direct administration to the aqueous humor (therefore, by intracameral administration). Table 1 lists the EC50 values (nM) obtained from the feline (cat) iris assay, calculated log P values (clog P), and IOP reduction values obtained after either topical or intracameral administration for different prostamides. Intracameral drug administration was accomplished by placing an infusion pump in the subcutaneous pocket in the neck of dogs with a cannula running into the anterior chamber of the eye. Test runs were carried out to measure and compare the concentration of the compound in the solution exiting the pump with that initially added to the pump in order to confirm the dosing level.

[2] = tested on: intraocular pressure in dogs; test: IOP reduction after topical administration to normotensive dogs; format: in vivo, dog; settings: topical 25 μL, 6 hours after administration
Excerpt: as §1

[3] = molecular target: Prostamide/FP receptor (Felis catus, UniProt A0ABI7XJ69); test: Cat iris sphincter assay (contraction of isolated feline iris sphincter muscle); format: cell-based
Prostamide/FP receptor, sequence (A0ABI7XJ69 entry or part of it): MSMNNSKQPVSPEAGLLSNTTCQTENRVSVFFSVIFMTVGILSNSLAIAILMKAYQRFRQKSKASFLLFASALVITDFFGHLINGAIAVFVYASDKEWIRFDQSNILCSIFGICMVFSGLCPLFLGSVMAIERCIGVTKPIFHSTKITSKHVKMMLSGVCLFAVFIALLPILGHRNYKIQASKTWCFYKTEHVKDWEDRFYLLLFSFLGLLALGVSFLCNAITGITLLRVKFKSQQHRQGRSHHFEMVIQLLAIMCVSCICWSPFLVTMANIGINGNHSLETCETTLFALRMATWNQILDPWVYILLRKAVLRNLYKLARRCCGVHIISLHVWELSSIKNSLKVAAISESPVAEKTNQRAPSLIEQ

| SMILES | Intracameral Administration (dogs) Max IOP reduction ([1]; dose 108 ng/day) [%] | Topical Administration (dogs) IOP reduction ([2]; concentration 0.01% (w/v)) [mm Hg] | Intracameral Administration (dogs) Max IOP reduction ([1]; dose 100 ng/day) [%] | Intracameral Administration (dogs) Max IOP reduction ([1]; dose 15 ng/day) [%] | EC50 [3] [nM] | Topical Administration (dogs) IOP reduction ([2]; concentration 0.03% (w/v)) [mm Hg] | IOP reduction when administered intracamerally, compared with bimatoprost (in words) ([1]; normotensive dog eye, directly to the anterior chamber) |
| --- | --- | --- | --- | --- | --- | --- | --- |
| CCNC(=O)CCC/C=C\C[C@@H]1[C@@H](/C=C/[C@@H](O)CCc2ccccc2)[C@H](O)C[C@@H]1O [Compound 3, Bimatoprost] | ~45 | −3.6 | – | – | – | – | – |
| CCCCC[C@@H](/C=C/[C@@H]1[C@@H](C/C=C\CCCC(N)=O)[C@@H](O)C[C@H]1O)OC [Compound 5] | – | −3 to −4 | ~20 | – | – | – | – |
| CCNC(=O)CCC/C=C\C[C@@H]1[C@@H](/C=C/[C@@H](O)CCc2cc(Br)c(C)s2)[C@H](O)C[C@@H]1O [Compound 4] | – | – | – | <10 | 25 | −3 | – |
| NC(=O)CCC/C=C\C[C@@H]1[C@@H](/C=C/[C@@H](O)CCc2cc(Cl)sc2Cl)[C@H](O)C[C@@H]1O [Compound 1] | – | – | – | ~35 | – | −5 | reduces IOP effectively and much more efficiently than bimatoprost |
